Assay results published in US20050164370A1 (priority 2003, published 2005).
Where two headings read alike, the source gives them in different places.

Tests used:
Assay type in all cases: cell-based, yeast
[1] = system: transformed cells TM182-CYC1-ADHIPT4; settings: DOHLU+Glu, 30° C. for 24 hours
Description: (§1) Each of the transformed cells TM182-CYC1-CYC1IPT4, TM182-CYC1-ADHIPT4, TM182-CYC1-CYC1IPT5, TM182-CYC1-ADHIPT5, TM182-CRE1-CYC1IPT4, and TM182-CRE1-ADHIPT5 obtained in Example 16 was inoculated in 200 mL of DOHLU+Gal culture medium, and was pre-cultured at 30° C. for 36 hours. The thus obtained culture solutions were diluted with DOHLU+Glu culture medium so that OD600 became 0.200, and then the diluted ones were further diluted with DOHLU+Glu culture medium at a dilution rate of 1/200 to obtain diluted pre-cultured solutions.
(§2) A 96-well assay plate was prepared by filling each well with 1 μL of a DMSO solution of an examinee substance (Abscisic acid or 6-Benzyl aminopurine). In this regard, it is to be noted that the DMSO solution of a examinee substance was prepared so that the concentration thereof became 200 ppm. Simultaneously, an assay plate was prepared by filling each well with 1 μL of DMSO as a blank section.
(§3) Each of the diluted pre-cultured solutions was added in a volume of 100 μL per each well of both of the assay plates, and was cultured at 30° C. for 24 hours. After incubation, the turbidity of each well was measured using a plate reader.
as §1, with “TM182-CRE1-ADHIPT4, TM182-AHK2-CYC1IPT4, TM182-AHK2-CYC1IPT5” for “TM182-CRE1-CYC1IPT4,”, “TM182-AHK2-ADHIPT5” for “TM182-CRE1-ADHIPT5”
as §3

[2] = system: transformed cells TM182-CYC1-CYC1IPT4; settings: DOHLU+Glu, 30° C. for 24 hours
Description: as §1, §2, §3
as §1, with “TM182-CRE1-ADHIPT4, TM182-AHK2-CYC1IPT4, TM182-AHK2-CYC1IPT5” for “TM182-CRE1-CYC1IPT4,”, “TM182-AHK2-ADHIPT5” for “TM182-CRE1-ADHIPT5”
as §3

[3] = system: transformed cells TM182-CRE1-CYC1IPT4; experiment: Liquid culture of transformed cell TM182-CRE1-CYC1IPT4 with examinee substance, absorbance; settings: Table 3, TM182-CRE1-CYC1-IPT4, 1 μL of 200 ppm DMSO solution per 100 μL, DOHLU+Glu, 30° C. for 24 hours
Description: (§4) The thus obtained culture solutions were diluted with DOHLU+Glu culture medium so that OD600 became 0.200, and then the diluted ones were further diluted with DOHLU+Glu culture medium at a dilution rate of 1/200 to obtain diluted pre-cultured solutions.
as §2
(§5) Each of the diluted pre-cultured solutions was added in a volume of 100 μL per each well of both of the assay plates, and was cultured at 30° C. for 24 hours. After incubation, the turbidity of each well was measured using a plate reader. The absorbance (OD600) of each of the culture solutions of the transformed cells containing the examinee substance was shown in Table 3. […] Further, the growth speeds of the transformed cells TM182-CRE1-CYC1IPT4 and TM182-CRE1-ADHIPT5 in the culture medium to which 6-Benzyl aminopurine was added were faster than those in the culture medium to which only DMSO was added.

[4] = system: transformed cells TM182-CRE1-ADHIPT4; experiment: Liquid culture of transformed cell TM182-CRE1-ADHIPT4 with examinee substance, absorbance; settings: Table 4, TM182-CRE1-ADH-IPT4, 1 μL of 200 ppm DMSO solution per 100 μL, DOHLU+Glu, 30° C. for 24 hours
Description: as §4, §2
as §5, with “4.” for “3.”, “TM182-CRE1-ADHIPT4, TM182-AHK2-CYC1IPT4, TM182-AHK2-CYC1IPT5” for “TM182-CRE1-CYC1IPT4”, “TM182-AHK2-ADHIPT5” for “TM182-CRE1-ADHIPT5”

[5] = system: transformed cells TM182-AHK2-CYC1IPT4; experiment: Liquid culture of transformed cell TM182-AHK2-CYC1IPT4 with examinee substance, absorbance; settings: Table 4, TM182-AHK2-CYC1-IPT4, 1 μL of 200 ppm DMSO solution per 100 μL, DOHLU+Glu, 30° C. for 24 hours
Description: as §4, §2
as §5, with “4.” for “3.”, “TM182-CRE1-ADHIPT4, TM182-AHK2-CYC1IPT4, TM182-AHK2-CYC1IPT5” for “TM182-CRE1-CYC1IPT4”, “TM182-AHK2-ADHIPT5” for “TM182-CRE1-ADHIPT5”

[6] = Table 3, TM182-CYC1-ADH-IPT4, 1 μL of 200 ppm DMSO solution per 100 μL
[7] = Table 4, TM182-CYC1-ADH-IPT4, 1 μL of 200 ppm DMSO solution per 100 μL
[8] = Table 3, TM182-CYC1-CYC1-IPT4, 1 μL of 200 ppm DMSO solution per 100 μL
[9] = Table 4, TM182-CYC1-CYC1-IPT4, 1 μL of 200 ppm DMSO solution per 100 μL

Compound: CC1=CC(=O)CC(C)(C)[C@@]1(O)/C=C/C(C)=C\C(=O)O [Compound A, Abscisic acid]
- absorbance (OD600) of the culture solution [1, 6]: 0.040
- absorbance (OD600) of the culture solution [1, 7]: 0.035
- absorbance (OD600) of the culture solution [2, 8]: 0.042
- absorbance (OD600) of the culture solution [2, 9]: 0.035
- absorbance (OD600) of the culture solution [3]: 0.102
- absorbance (OD600) of the culture solution [4]: 0.045
- absorbance (OD600) of the culture solution [5]: 0.194

Compound: c1ccc(CNc2ncnc3nc[nH]c23)cc1 [Compound B, 6-Benzyl aminopurine]
- absorbance (OD600) of the culture solution [1, 6]: 0.041
- absorbance (OD600) of the culture solution [1, 7]: 0.034
- absorbance (OD600) of the culture solution [2, 8]: 0.042
- absorbance (OD600) of the culture solution [2, 9]: 0.034
- absorbance (OD600) of the culture solution [3]: 0.260
- absorbance (OD600) of the culture solution [4]: 0.058
- absorbance (OD600) of the culture solution [5]: 0.339
